Common to all, as to assay: NCI anticancer screen, dose series, 48 h
Experiment [1] concerns CAKI-1 renal.
Experiment [2] has as its system HCT-116 colon.
Experiment [3] deals with HT29 colon.
In experiment [4] the test system is OVCAR-8 ovarian.
Experiment [5] has as its system PC-3 prostate.
In experiment [6] the test system is SK-OV-3 ovarian.
Experiment [7] has as its system HCC-2998 colon.
Experiment [8] has as its system MDA-MB-435.
Experiment [9] deals with T-47D breast.
Experiment [10] concerns HS 578T breast.

The source of these data is PubChem BioAssay (NCI).

Values joined by “and” are separate entries in the source; they are usually repeats but may differ in a detail not shown here. Identical values can stand only once.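 Following 48 hours of exposure in 96-well plates, responses at five concentrations were used to interpolate endpoints linearly. Abbreviation: GI50, concentration required for 50% inhibition of growth. TGI denotes the concentration required for complete inhibition of growth.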

With `CCN1/C(=C/C(C)=C/c2sc3ccc4ccccc4c3[n+]2CC)Sc2ccc3ccccc3c21`, the GI50 in experiment [1] is 0.264 µM; in experiment [2], 127 nM; in [3], 109 nM; in experiment [4], 67 nM; in experiment [5], 85 nM; in experiment [6], 0.236 µM. Further, the TGI in experiment [1] is 1.15 µM; in [2], 0.293 µM; in experiment [3], 0.233 µM; in [4] it was 0.83 µM; in [5] it was 1.46 µM; in [6], 0.78 µM.
Take `C=CCCn1nc(-c2ccccc2)oc1=O`: the TGI in experiment [1], in experiment [7], in experiment [2], in [3], in experiment [4] and in [6] was over 100 µM each time.
`CN(C)CC1(C)CC/C(=C\c2ccc(Cl)cc2)C1=O` (stereo not drawn): the TGI in experiment [1], in experiment [7], in [2], in experiment [3] and in [4] was over 100 µM throughout.
For the compound `CCCCCN(CCCCC)CCC[C@@H](C)[C@H]1CC[C@H]2[C@@H]3[C@H](OCCCN)C[C@@H]4C[C@H](OCCCN)CC[C@]4(C)[C@H]3C[C@H](OCCCN)[C@]12C`, the GI50 was 40.7 µM in [1]; 7980 nM in experiment [7]; 2400 nM in experiment [2]; 2650 nM in experiment [3]; 1980 nM in experiment [8]; 7390 nM in experiment [4]. Besides, the GI50 in [5] is 11600 nM; in [6], 15.9 µM; in [9], 10000 nM. The TGI was over 100 µM in experiment [1]; 24.9 µM in experiment [7]; 14.7 µM in experiment [2]; 15.3 µM in experiment [3]; 4.93 µM in experiment [8]; 22.9 µM in experiment [4]. The TGI stood at 24.8 µM in experiment [5], 34.9 µM in experiment [6] and 30.3 µM in experiment [9].
Take `C[C@@H]1CC[C@@]2(C)OC(c3ccccc3)[C@H](CO)N2C1=O` (stereo partly drawn): the TGI in experiment [1], in experiment [2], in experiment [3] and in [4] was over 100 µM in each case.
As for `COc1cc2c3c(n(CCCN=[N+]=[N-])c(=O)c2cc1OC)-c1ccccc1C3=O`, the GI50 in experiment [1] is 2.13 µM; in [7], 94200 nM; in experiment [2], 1810 nM; in [3], over 100000 nM; in experiment [8] it was 9810 nM; in [4], 5680 nM. Moreover, the GI50 in experiment [5] was over 100000 nM; in [6], over 100 µM; in [9] it was over 100000 nM. Besides, the TGI was 7.77 µM in experiment [1]; over 100 µM in experiment [7]; 17.8 µM in experiment [2]; over 100 µM in experiment [3]; 83.9 µM in experiment [8]; over 100 µM in experiment [4]. In addition, the TGI in [5], in experiment [6] and in experiment [9] was over 100 µM each time.
Turning to `C=CC12CCCCC1CC(C(=O)OC)=C(O)C2` (stereo not drawn), the TGI in [1], in experiment [7], in [2], in experiment [3], in experiment [4] and in [6] was over 100 µM throughout.
In the case of `CC1OC(n2cc(F)c(=O)[nH]c2=O)CCC1=O` (stereo not drawn), the TGI in experiment [1], in experiment [7], in [2], in experiment [3], in experiment [4] and in experiment [6] was over 100 µM throughout.
As to `O/N=C1/CCCC/C1=C\c1ccc(Cl)c(Cl)c1`, the TGI in experiment [1] was 99.7 µM; in experiment [7], 75.3 µM; in experiment [2], 35.8 µM; in [3], 39.9 µM; in [4], over 100 µM; in [6], 86.9 µM.
On to `CC(=O)N1c2ccccc2N(C(C)=O)C1c1ccc(C2N(C(C)=O)c3ccccc3N2C(C)=O)[nH]1`, for which the TGI in experiment [1], in experiment [7], in [2], in experiment [3], in experiment [4] and in experiment [6] was over 100 µM in each case.
In the case of `C=C(C)CC(C(=O)O)c1ccc(C)cc1` (stereo not drawn), the TGI in experiment [1], in [2], in [3] and in [4] was over 100 µM in each case.
As for `O=CCCn1[nH]c(=O)ccc1=O`, the TGI in experiment [1], in experiment [7], in experiment [2], in [3] and in experiment [4] was over 100 µM in each case.
On to `NC1=NN(c2ccccc2)C(=O)C1C(=O)C(=O)Nc1ccccc1` (stereo not drawn), for which the TGI in [1], in experiment [7], in experiment [2], in [3], in [4] and in experiment [6] was over 100 µM in each case.
`COc1ccc(/C=C/c2onc3c(=O)n(C)nc(-c4ccccc4)c23)cc1`: the TGI in [1] was 82.2 µM; in experiment [2] it was over 100 µM; in [3], over 100 µM; in [4], over 100 µM; in experiment [6], over 100 µM.
For the compound `O=CN/C=C/c1ccccc1`, the TGI in experiment [1], in [7], in experiment [2], in [3], in experiment [4] and in experiment [5] was over 100 µM each time. In experiment [6], this compound yielded a TGI of over 100 µM.
On to `C[C@]12Cc3conc3C(O)=C1CC[C@@H]1C2CC[C@@]2(C)C1CC[C@@H]2O` (stereo partly drawn), for which the TGI was over 100 µM in [1], over 100 µM in experiment [3], 88.5 µM in experiment [4] and 89 µM in experiment [6].
On to `CCCCCCCCCCCCCCCCc1c(C(=O)OC)nc(NC#N)[nH]c1=O`, for which the TGI in experiment [7], in experiment [2], in experiment [3], in experiment [4] and in experiment [6] was over 25 µM in each case.
Consider `COC(=O)/C=C1\CCC2[C@@H](C(=O)CC3[C@]2(C)CCC[C@@]3(C)C(=O)OC)C1C` (stereo partly drawn), for which the TGI is over 100 µM in experiment [1]; 97.9 µM in experiment [7]; 48.3 µM in experiment [2]; 61 µM in experiment [3]; 50.5 µM in [4]; 72.4 µM in [6].
For `CCOC(=O)C1CC(=O)C=C2CCCCC21` (stereo not drawn), the TGI in [1], in experiment [7], in [2], in [3], in experiment [4] and in experiment [6] was over 100 µM each time.
With `CCOC(=O)NC(=O)c1cn(CCSCCOC(=O)NCCCCCCNC(=O)OCCSCCn2cc(C(=O)NC(=O)OCC)c(=O)n(C)c2=O)c(=O)n(C)c1=O`, the TGI is over 100 µM in [7]; 52.6 µM in experiment [2]; over 100 µM in [3]; 65.9 µM in experiment [4]; over 100 µM in experiment [6].
As to `CC[C@]12CN3CCc4c([nH]c5ccccc45)[C@@](C(=O)OC)(c4cc5c(cc4OC)N(C)[C@H]4[C@@](O)(C(=O)OC)[C@H](OC(C)=O)[C@]6(CC)C=CCN7CC[C@]54[C@@H]76)CC(C3)[C@H]1O2` (stereo partly drawn), the GI50 in experiment [1] was 3.72 µM; in [7], 226 nM; in experiment [2] it was 147 nM; in experiment [3], 131 nM; in experiment [8], 16.1 nM; in experiment [4], 273 nM. Further, the GI50 in [5] was 222 nM. Also, the TGI in experiment [1] is over 100 µM; in [2] it was over 100 µM; in experiment [10], 72.3 µM; in experiment [3] it was over 73.5 µM; in [8], 0.0252 µM and 0.0878 µM; in experiment [4] it was over 100 µM. The TGI in experiment [5] and in experiment [6] was over 100 µM throughout.
For `Cn1cnc([N+](=O)[O-])c1Sc1n[nH]c(-c2ccc(Cl)cc2)n1`, the TGI in [1] was determined as 78.8 µM; in experiment [7] it was 40.6 µM; in experiment [2] it was 58.1 µM; in [3], 42.5 µM; in experiment [4] it was 32.4 µM; in experiment [6] it was 95.7 µM.
With `OCC1OC(N2C=C(c3nc4ccccc4s3)C3C=CC=CC32)C(O)C(O)C1O` (stereo not drawn), the GI50 was 16.9 µM in experiment [1]; 11500 nM in experiment [2]; 20.1 µM in experiment [10]; 19000 nM in experiment [3]; 11800 nM in [8]; 18900 nM in experiment [4]. Further, the values for the GI50 in [5] and in experiment [6] were 13000 nM and 41.1 µM, respectively. Moreover, the TGI in experiment [1] was over 50 µM; in [2] it was 42.4 µM; in experiment [10] it was over 50 µM; in [3], over 50 µM; in experiment [8], 28.1 µM; in [4], over 50 µM. In addition, the TGI in [5] and in experiment [6] was over 50 µM throughout.
For `N#CC(Sc1ccccc1)C(N)=O` (stereo not drawn), the TGI in [1], in experiment [7], in [2], in experiment [3], in experiment [4] and in experiment [6] was over 100 µM throughout.
On to `O=S1Nc2cccc(C(F)(F)F)c2S1` (stereo not drawn), for which the TGI was over 100 µM in [1]; 64.4 µM in experiment [7]; over 100 µM in experiment [2]; over 100 µM in [3]; over 100 µM in [4]; over 100 µM in experiment [6].
In the case of `COc1ccc(C(=O)/C=C/c2cc(-c3ccc(OC)c(OC)c3)n[nH]2)cc1OC`, the GI50 in experiment [7] is 1740 nM; in [10] it was 3.76 µM; in experiment [3] it was 1380 nM; in experiment [4], 2630 nM; in experiment [5] it was 1980 nM; in [6] it was 3.13 µM. Besides, the GI50 in experiment [9] was 1360 nM. For the same compound, the TGI in experiment [7] is 3.19 µM; in experiment [10], over 100 µM; in experiment [3], 4.95 µM; in experiment [4], 22.4 µM; in experiment [5] it was 35.7 µM; in [6], 33.3 µM. The compound also registered a TGI in [9] of 6.65 µM.
On to `c1cc[c]([Ge]([O]c2cccc3cccnc23)([c]2ccccc2)[c]2ccccc2)cc1`, for which the GI50 in [1] is 10.8 µM; in [7] it was 2540 nM; in experiment [2] it was 3410 nM; in [3] it was 3800 nM; in experiment [4] it was 3250 nM; in [6] it was 3.3 µM. Further, the TGI in experiment [1] stood at 28.9 µM; in experiment [7], 6.16 µM; in experiment [2], 12.7 µM; in experiment [3], 10.8 µM; in experiment [4] it was 10.6 µM; in experiment [6] it was 8.56 µM.
As for `Clc1ccc(-c2cnc3c(-c4ccnc(N5CCNCC5)c4)cnn3c2)cc1`, the GI50 was 1.9 µM in experiment [1]; 2020 nM in [7]; 1710 nM in experiment [2]; 1240 nM in experiment [3]; 1890 nM in [8]; 2210 nM in [4]. In addition, the values for the GI50 in experiment [5], in experiment [6] and in experiment [9] were 1850 nM, 2.72 µM and 1820 nM, respectively. In addition, the TGI turned out to be 3.51 µM in experiment [1]; 3.51 µM in experiment [7]; 3.09 µM in [2]; 2.53 µM in experiment [3]; 3.72 µM in [8]; 4.31 µM in experiment [4]. The TGI stood at 5.72 µM in experiment [5], 5.63 µM in experiment [6] and 3.8 µM in [9].
Consider `O=C(O)c1cnc2c(ccc3[nH]cccc32)c1=O`, for which the TGI in experiment [7], in experiment [2], in experiment [3], in experiment [4] and in experiment [6] was over 100 µM each time.
For `COc1ccc2cc3c4cc(OC)c(OC)cc4ccn3c2c1`, the TGI in [1], in experiment [7], in [3], in experiment [4] and in [6] was over 100 µM in each case.
